From patent US20210069194A1, “COMBINATION THERAPY FOR THE TREATMENT OF CANCER” (MingSight Pharmaceuticals, Inc., priority 2018, published 2021)

Key:
[1] = system: IL-6 production in TMD8 cells; assay: IL-6 assay (ELISA) in TMD8 cells; assay type: cell-based, Human; conditions: for Inhibition of IL-6 production: TMD8 cells (activating CD79 mutation), 48 hours
Method: (§1) TMD8 cells were grown in MEM media supplemented with 10% fetal calf serum (FCS), non-essential vitamin mix, and penicillin-streptomycin antibiotics (pen-strep). HBL1 cells were grown in RPMI-1640 media supplemented with 10% FCS and pen-strep. OCI-Ly3 cells were grown in DMEM media with 15% FCS, non-essential vitamin mix, pen-strep, and 25 mM HEPES buffer. Cells were maintained in suspension culture, fed twice weekly, and split 1:3 approximately every two weeks (TMD8, OCI-Ly3) or weekly (HBL1).
(§2) Cells were harvested via centrifugation and resuspended twice to rinse the media of any IL-6. Cells were then plated in 96 well plates at 5×10^5 cells per well and exposed to increasing concentrations of Compound A, sotrastaurin, or media containing 0.1% DMSO (negative control). For each cell type, experiments were performed in the media used for growth and maintenance. Cells were allowed to grow for 48 hours after plating in the presence of inhibitors. Following compound exposure, cells were pelleted in the 96 well plate, supernatant was removed, and the concentration of IL-6 in the supernatant was determined using R&D Systems Haman IL-6 Quantikine® ELISA Kit (D6050) according to manufacturer's instructions.

[2] = system: IL-6 production in OCI-Ly3 cells; assay: IL-6 assay (ELISA) in OCI-Ly3 cells; assay type: cell-based, Human; conditions: OCI-Ly3 cells (no activating CD79 mutation), 48 hours
Method: as §1, §2

TMD8 cells [3] = assay: Cell proliferation and survival assay (MTT), TMD8; assay type: cell-based, Human; conditions: for Inhibition of cell proliferation and survival: TMD8 cells, MTT, 96 hours
Method: (§3) TMD8 cells were grown in MEM media supplemented with 10% fetal calf serum (FCS), non-essential vitamin mix, and penicillin-streptomycin antibiotics (pen-strep). HBL1 cells were grown in RPMI-1640 media supplemented with 10% FCS and pen-strep. OCI-Ly3 cells were grown in DMEM media with 15% FCS, non-essential vitamin mix, pen-strep, and 25 mM HEPES buffer. Cells were maintained in suspension culture, fed twice weekly, and split 1:3 approximately every two weeks (TMD8, OCI-Ly3) or weekly (HBL1). Cells were cultured and maintained as described above, with cells always fed on the day prior to assay. Proliferation and survival of cells was quantified using an MTT assay kit according to manufacturer's instructions (Cell Proliferation Kit 1, Roche Diagnostics, Cat. No. 11 465 007 001). Experiments were performed in the same media used by each cell type for growth and maintenance. Cells (5×10^4) were plated in 96 well plates and allowed to grow for 96 hours in the presence of inhibitors. After the exposure period was completed, MTT reagent was added for 3-4 hours. The MTT solubilization reagent was then added to stop the reaction and cells were incubated overnight at 37° C. The plate read the next day according to the kit instructions.

OCI-Ly3 cells = assay: Cell proliferation and survival assay (MTT), OCI-Ly3; assay type: cell-based, Human; conditions: 96 hours
Method: as §3

Human PKC delta = Human PKC delta (Homo sapiens, UniProt Q05655); assay: PKC isoform inhibition in vitro assay, PKC delta; assay type: biochemical
[4] = system: IL-6 production in HBL1 cells; assay: IL-6 assay (ELISA) in HBL1 cells; assay type: cell-based, Human; conditions: HBL1 cells (activating CD79 mutation), 48 hours, data not shown
HBL1 cells = assay: Cell proliferation and survival assay (MTT), HBL1; assay type: cell-based, Human; conditions: 96 hours, data not shown
TMD8 cells [5] = assay: TMD8 mouse xenograph model of DLBCL, tumor volume; assay type: in vivo, SCID mice; conditions: 120 mg/kg BID
Method: (§4) To test the efficacy of Compound A in vivo, TMD8 cells were grown and subcutaneously injected into SCID mice. Large scale suspension culture of TMD8 cells was performed in T250 flasks, where cells were expanded weekly. Animals (n=24) were inoculated with 10×10^6 cells (10×10^6 cells in 100 μL volume of 50% Matrigel®) subcutaneously in the animal's right flank.

[6] = TMD8 mouse xenograph model of DLBCL, body weight; assay type: in vivo, SCID mice; conditions: 120 mg/kg BID
Method: as §4

circulating lymphocytes = assay: Peripheral lymphocyte levels in healthy humans, multiple ascending dose study; assay type: in vivo, human; conditions: healthy humans, 50, 100, 150, 200 mg BID, 14 days
Method: Normal, healthy human patients received various doses of Compound A for 14 days of dosing. The dose levels were as follows: cohort 1: 50 mg, BID; cohort 2: 100 mg, BID; cohort 3, 150 mg, BID; and cohort 4,200 mg BID.

Human PKC delta, sequence (Q05655 whole entry, canonical isoform): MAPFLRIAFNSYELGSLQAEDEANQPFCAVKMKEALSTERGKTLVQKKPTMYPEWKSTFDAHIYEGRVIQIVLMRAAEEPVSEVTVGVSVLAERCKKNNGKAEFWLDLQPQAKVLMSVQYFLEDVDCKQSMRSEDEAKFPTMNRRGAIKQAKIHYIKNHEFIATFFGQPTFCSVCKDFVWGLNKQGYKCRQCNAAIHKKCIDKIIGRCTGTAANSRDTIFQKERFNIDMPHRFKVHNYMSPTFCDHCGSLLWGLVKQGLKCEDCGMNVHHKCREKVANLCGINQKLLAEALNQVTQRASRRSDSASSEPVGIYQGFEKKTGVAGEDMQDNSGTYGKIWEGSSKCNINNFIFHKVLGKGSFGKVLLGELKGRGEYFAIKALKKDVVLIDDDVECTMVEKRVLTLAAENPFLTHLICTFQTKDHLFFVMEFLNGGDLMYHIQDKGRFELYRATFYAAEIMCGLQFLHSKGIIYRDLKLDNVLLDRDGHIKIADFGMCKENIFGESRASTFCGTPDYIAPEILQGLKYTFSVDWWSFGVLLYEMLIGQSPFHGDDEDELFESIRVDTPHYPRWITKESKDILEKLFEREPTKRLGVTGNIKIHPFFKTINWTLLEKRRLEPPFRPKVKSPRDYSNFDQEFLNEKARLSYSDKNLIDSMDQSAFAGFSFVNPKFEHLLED

SMILES: CN1CCN(c2nc(C3=C(c4c[nH]c5ccccc45)C(=O)NC3=O)c3ccccc3n2)CC1 [sotrastaurin, reference compound]
- Inhibition of IL-6 production [1]: dose dependent inhibition
- Inhibition of IL-6 production [2]: not affected
- Inhibition of cell proliferation and survival (TMD8 cells [3]): dose dependent inhibition
- Inhibition of cell proliferation and survival (OCI-Ly3 cells): not affected by either compound except at the highest doses tested

SMILES: Cc1ncc(F)c(Nc2n[nH]c3c2CN(C(=O)N2C[C@@H](C)N(CC4CCOCC4)C[C@@H]2C)C3(C)C)n1 [Compound A, 5-{[(2S,5R)-2,5-Dimethyl-4-(tetrahydro-2H-pyran-4-ylmethyl)piperazin-1-yl]carbonyl}-N-(5-fluoro-2-methylpyrimidin-4-yl)-6,6-dimethyl-1,4,5,6-tetrahydropyrrolo[3,4-c]pyrazol-3-amine]
- Inhibition of PKC delta (in words) (Human PKC delta): does not inhibit PKC delta to any appreciable degree
- Potency compared to sotrastaurin, IL-6 assay [1]: slightly more potent
- Inhibition of IL-6 production [1]: dose-dependent inhibition
- Inhibition of IL-6 production [4]: dose-dependent inhibition
- Inhibition of IL-6 production [2]: not affected
- Potency compared to sotrastaurin, cell proliferation assay (TMD8 cells [3]): modestly more potent
- Inhibition of cell proliferation and survival (TMD8 cells [3]): dose-dependent inhibition
- Inhibition of cell proliferation and survival (HBL1 cells): dose-dependent inhibition
- Inhibition of cell proliferation and survival (OCI-Ly3 cells): not affected by either compound except at the highest doses tested
- Mean tumor volume (TMD8 cells [5]; study day 20): 898 mm^3
- Mean tumor volume (TMD8 cells [5]; study day 28): 970 mm^3
- Increase of mean tumor volume (TMD8 cells [5]; study days 20 to 28): 8%
- Tumor growth (in words) (TMD8 cells [5]; study days 20 to 28): no appreciable amounts of tumor growth
- Mean weight of vehicle treated group greater than Compound A treated animals by [6]: 1.8 g
- Body weight change ([6]; day 24-28): no increase in body weight
- Number of circulating lymphocytes (circulating lymphocytes): dose dependent increase
